Patent US20200171015A1, “METHODS OF TREATMENT FOR CYSTIC FIBROSIS” (Vertex Pharmaceuticals Incorporated, priority 2017, published 2020)
Marks after values point to notes of the source that are not given here.

Assays:
[1] = Example 4: randomized, double-blind, placebo-controlled single- and multiple-dose escalation study, safety and tolerability; format: in vivo, human; conditions: healthy volunteers
Source text: A randomized, double-blind, placebo-controlled, single- and multiple-dose, dose-escalation study was conduced in healthy volunteer subjects. Subjects were randomized to receive Compound I or placebo (Part A and Part B), and triple combination of Compound I, Compound II, and Compound III, or triple placebo (Part C).

[2] = Preclinical reproductive toxicology studies; conditions: in vivo
CFTR = conditions: disclosed in PCT Publication No. WO 2016/057572; cited from earlier work
[3] = Previous studies of Compound I, safety and tolerability; format: in vivo, human
[4] = tested on: people with CF who have one F508del mutation and one minimal function mutation (F/MF); test: Phase 2 study Part 1: efficacy (ppFEV1, sweat chloride, CFQ-R); format: in vivo, human; conditions: Part 1 F/MF
Description: (§1) The safety of Compound I in triple combination with Compounds II and III is evaluated in CF subjects in a 2-part, randomized, double-blind, placebo- and Compound II/III-controlled, parallel-group, multicenter study. Parts 1 and 2 include a Screening Period, a 2-week Treatment Period, and a Safety Follow-up Visit. Part 2 also includes a 4-week Run-in Period before the Treatment Period and a 2-week Washout Period after the Treatment Period.
In Part 1, three dose levels of Compound I (100, 200, and 300 mg q12h) in triple combination with Compound II (100 mg qd) and Compound III (150 mg q12h) is evaluated in subjects with the F508del/MF genotype.
Part 1 has three cohorts (Cohorts IA, IB, and IC). In Cohort 1A, the triple combination of Compound I at 100 mg q12h, Compound II at 100 mg qd, and Compound III at 150 mg q12h is evaluated in subjects with the F508del/MF genotype. In Cohort IB, the triple combination of Compound I at 200 mg q12h, Compound II at 100 mg qd, and Compound III at 150 mg q12h is evaluated in subjects with the F508del/MF genotype. In Cohort IC, the triple combination of Compound I at 300 mg q12h, Compound II at 100 mg qd, and Compound III at 150 mg q12h is evaluated in subjects with the F508del/MF genotype. Triple placebo is the comparator for all three cohorts
(§2) Primary endpoints for the study include: safety and tolerability assessments based on adverse events (AEs), clinical laboratory values, standard 12-lead electrocardiograms (ECGs), vital signs, and pulse oximetry. Secondary endpoints include: absolute change in sweat chloride concentrations from baseline at Day 15; absolute change in percent predicted forced expiratory volume in 1 second (ppFEV1) from baseline at Day 15; relative change in ppFEV1 from baseline at Day 15; absolute change in Cystic Fibrosis Questionnaire-Revised (CFQ-R) respiratory domain score from baseline at Day 15; and PK parameters of Compound I, Compound II, Compound III, and metabolites of Compounds II and III.
(§3) In this Phase 2 randomized, double-blind study, Compound I (100 mg, 200 mg and 300 mg q12h) in combination with Compound II (100 mg qd) and Compound III (150 mg q12h) in people with CF ages 18 and older who have one F508del mutation and one minimal function mutation and in people who have two copies of the F508del mutation was studied. Primary endpoints as described above in Example 6 were for safety and tolerability. Secondary endpoints included absolute change in ppFEV1 and change in sweat chloride.
In Part 1 of the study, the triple combination was evaluated for two weeks in 34 patients ages 18 and older who had one F508de/mutation and one minimal function mutation (8 in combined placebo, 6 in Compound I 100 mg, 10 in Compound 1 200 mg, and 10 in Compound 1 300 mg). A summary of the within-group ppFEV (primary endpoint) and sweat chloride data (secondary endpoint) through Day 15 is provided below.

[5] = tested on: people with CF who have two copies of the F508del mutation (F/F); test: Phase 2 study Part 2: efficacy (ppFEV1, sweat chloride); format: in vivo, human; conditions: Part 2 F/F
Description: as §1
In Part 2, two dose levels of Compound I (200 and 300 mg q12h) in triple combination with Compound II (100 mg qd) and Compound III (150 mg q12h) is evaluated in subjects with the F508del/F508del genotype.
Part 2 has two cohorts (Cohorts 2A and 2B). In Cohort 2A, the triple combination of Compound I at 200 mg q12h, Compound II at 100 mg qd, and Compound III at 150 mg q12h is evaluated in subjects with the F508del/F508del genotype. In Cohort 2B, the triple combination of Compound I at 300 mg q12h, Compound II at 100 mg qd, and Compound III at 150 mg q12h is evaluated in subjects with the F508del/F508del genotype. The combination of placebo, Compound II, and Compound III is the comparator for both cohorts.
as §2, §3
In Part 2 of the study, the triple combination was evaluated for two weeks in 14 patients ages 18 and older who had two copies of the F508del mutation, who were already receiving the combination of Compound II and Compound III (4 weeks, 4 in placebo and 10 in Compound I 200 mg). A summary of the within-group lung function (ppFEV) (primary endpoint) and sweat chloride data (secondary endpoint) for the triple combination treatment period, from baseline (end of the 4-week Compound II/Compound III run-in period), through Day 15 is provided below.
A summary of the within-group lung function (ppFEV) (primary endpoint) and sweat chloride data (secondary endpoint) from patients in Part 2 of the study who received the triple combination including 300 mg of Compound I for 4 weeks is provided below.

[6] = Compound I 100 mg in triple combination with Compound II and Compound III, n 6
[7] = Compound I 200 mg in triple combination with Compound II and Compound III, n 10
[8] = Compound I 300 mg in triple combination with Compound II and Compound III, n 21

With `CC(C)COc1cc(F)cc(-c2ccc(C(=O)NS(=O)(=O)c3cccc(N)n3)c(N3C[C@@H](C)CC3(C)C)n2)c1` [Compound I, N-[(6-amino-2-pyridyl)sulfonyl]-6-(3-fluoro-5-isobutoxy-phenyl)-2-[(4S)-2,2,4-trimethylpyrrolidin-1-yl]pyridine-3-carboxamide] the “Deaths, serious or severe adverse events” value ([1]; all parts of the study) was “no deaths or serious or severe adverse events”, the “Severity of adverse events” value ([1]; all parts of the study) was “mild or moderate” and the Dose-limiting adverse events ([1]; multiple doses of 800 mg q12h) was “Dose-limiting adverse events were observed”. The Tolerability ([1]; multiple doses up to 400 mg q12h for 14 days) was “well tolerated”, the Tolerability ([1]; single doses from 50 mg up to 2000 mg) was “well tolerated” and the Tolerability ([1]; up to 300 mg q12h in triple combination with Compound II (100 mg qd) and Compound III (150 mg q12h) for 13 days) was “well tolerated”. The “Findings in preclinical reproductive toxicology studies” value [2] was “no adverse findings of note”, the “EC30 as CFTR modulator” value (CFTR) was less than 3 µM and the Safety and tolerability ([3]; multiple doses up to 300 mg q12h in combination with Compound II (100 mg qd) and Compound III (150 mg q12h), after 14 days of dosing) was “generally safe and tolerated”. The Safety and tolerability ([3]; single doses up to 2000 mg and multiple doses up to 400 mg q12h) was “generally safe and well tolerated”, the Hemolysis ([3]; subjects with glucose-6-phosphate dehydrogenase (G6PD) deficiency) was “treatment-emergent hemolysis in a subject who was found to have glucose-6-phosphate dehydrogenase (G6PD) deficiency” and the “Sweat Chloride, Abs. Change from Baseline, Day 15 Results” value [4, 6] was −19.5. For the same compound, the “ppFEV1, Abs. Change from Baseline, Day 15 Results” value [4, 6] was 5.7, the “ppFEV1, Abs. Change from Baseline, Day 15 Results” value [4, 7] was 9.7 and the “Sweat Chloride, Abs. Change from Baseline, Day 15 Results” value ([4]; Compound I 200 mg in triple combination with Compound II and Compound III, n 10, missing data from 2 subjects) was −13.6^a. For the same compound, the “Sweat Chloride, Abs. Change from Baseline, Day 15 Results” value ([4]; Compound I 300 mg in triple combination with Compound II and Compound III, n 10) was −27.5, the “ppFEV1, Abs. Change from Baseline, Day 15 Results” value ([4]; Compound I 300 mg in triple combination with Compound II and Compound III, n 10, missing data from 2 subjects) was 8.0^a and the “Sweat Chloride, Abs. Change from Baseline, Day 15 Results” value [5, 7] was −21.3. The “ppFEV1, Abs. Change from Baseline, Day 15 Results” value [5, 7] was 7.3, the “Sweat Chloride, Abs. Change from Baseline, Day 15 Results” value [5, 8] was −23.9 and the “Sweat Chloride, Abs. Change from Baseline, Day 29 Results” value [5, 8] was −22.3. For the same compound, the “ppFEV1, Abs. Change from Baseline, Day 15 Results” value [5, 8] was 5.1 and the “ppFEV1, Abs. Change from Baseline, Day 29 Results” value [5, 8] was 6.5.
